Where a SMILES comes first, the peptide text is derived from it. Bridges are numbered along the chain shown (N, C = ends). Side-chain parts run from the residue outwards. [ ]: non-standard residue; d: D form. The star is where a group is joined. X5 = O=C(O)CN1CCN(CC(=O)O)CCN(CC(=O)N[C@@H](CS(=O)(=O)O)C(=O)N[C@@H](CCCCNC(=O)CCCc2ccc(Cl)cc2)C(=O)*)CCN(CC(=O)O)CC1; X1 = O=C(O)CN1CCN(CC(=O)O)CCN(CC(=O)N[C@@H](CS(=O)(=O)O)C(=O)N[C@@H](CCCCNC(=O)CCCc2ccc(I)cc2)C(=O)*)CCN(CC(=O)O)CC1; DOTA = O=C(O)CN1CCN(CC(=O)O)CCN(CC(=O)*)CCN(CC(=O)O)CC1; NMeLys(iPr) = CN[C@@H](CCCCNC(C)C)C(=O)O; 2Nal = N[C@@H](Cc1ccc2ccccc2c1)C(=O)O; Lys(iPr) = CC(C)NCCCC[C@H](N)C(=O)O; Cya = N[C@@H](CS(=O)(=O)O)C(=O)O
Assay: in vivo
Design: species or system mice
Conditions: male, NOD.Cg-Rag1tm1Mom Il2rgtm1Wjl/SzJ (NRG), mouse, iv, total radioactivity
Experimental: The Z138 Mantle cell lymphoma cell line was purchased from the American Type Culture Collection (ATCC©CRL-3001). The cell line was cultured in a 5% CO2 atmosphere at 37° C. in a humidified incubator with IMDM medium supplemented with 10% fetal bovine serum, 100 I.U./mL penicillin, and 100 μg/mL streptomycin.
[^68Ga]GaCl3 was eluted from an iThemba Labs generator with a total of 4 mL of 0.1 M HCl. The eluted [^68Ga]GaCl3 solution was added to 2 mL of concentrated HCl. This radioactive mixture was then added to a DGA resin column and washed with 3 mL of 5 M HCl. The column was then dried with air and the [^68Ga]GaCl3 (0.10-0.50 GBq) was eluted with 0.5 mL of water into a vial containing a solution of the unlabeled precursor (25 μg) in 0.7 mL HEPES buffer (2 M, pH 5.3). The reaction mixture was heated in a microwave oven (Danby; DMW7700WDB) for 1 min at power setting 2. The mixture was purified by semi-prep HPLC and quality control was performed via analytical HPLC with the co-injection of the unlabeled standard with a one-twelfth of the radiotracer. Radiochemical yields (decay-corrected) were >50% and radiochemical purities were >95%.
Animal experiments were performed in accordance with guidelines established by the Canadian Council on Animal Care, under a research protocol approved by the Animal Ethics Committee of the University of British Columbia. For all studies, male NOD.Cg-Rag1tm1Momll2rgtm1Wjl/SzJ (NRG) mice were used and cells injected in a 100 μL solution of 1:1 ratio of PBS/Matrigel. For preclinical imaging and biodistribution studies, 5×10^6 cells of Z138, cells were subcutaneously inoculated on the left or right flank and tumors were grown to a size of 200-300 mm^3. […]
Under isoflurane anesthesia (2-2.5% isoflurane in 2 L/min 02), mice were injected intravenously with [^68Ga]Ga-BL34L6 or [^68Ga]Ga-BL34L7. Mice were euthanized by CO2 inhalation after anesthesia with isoflurane. Tissues were harvested, washed in PBS, patted dry, weighed, and then assayed radioactivity on a gamma counter. Counted radioactivities were converted to percentage injected dose per gram of tissue (% ID/g) using a calibration curve.

[1] = Biodistribution: Small Intestine

| tissue uptake at 1 h (Biodistribution: Adrenals) | tissue uptake at 1 h (Biodistribution: Blood) | tissue uptake at 1 h (Biodistribution: Bone) | tissue uptake at 1 h (Biodistribution: Brain) | tissue uptake at 1 h (Biodistribution: Heart) | tissue uptake at 1 h (Biodistribution: Kidneys) | tissue uptake at 1 h (Biodistribution: Liver) | tissue uptake at 1 h (Biodistribution: Lungs) | tissue uptake at 1 h (Biodistribution: Muscle) | tissue uptake at 1 h (Biodistribution: Pancreas) | tissue uptake at 1 h [1] | tissue uptake at 1 h (Biodistribution: Spleen) | tissue uptake at 1 h (Biodistribution: Stomach) | tissue uptake at 1 h (Biodistribution: Testes) | tissue uptake at 1 h (Biodistribution: Z138 Tumor) | tissue to tissue ratio at 1 h (Ratio Tumor-to-Blood) | tissue to tissue ratio at 1 h (Ratio Tumor-to-Bone) | tissue to tissue ratio at 1 h (Ratio Tumor-to-Kidney) | tissue to tissue ratio at 1 h (Ratio Tumor-to-Muscle) | tissue to tissue ratio at 1 h (Ratio Tumor-to-Pancreas) | SMILES | other results |
| --- | --- | --- | --- | --- | --- | --- | --- | --- | --- | --- | --- | --- | --- | --- | --- | --- | --- | --- | --- | --- | --- |
| 4.99 %ID/g | 18.7 %ID/g | 1.53 %ID/g | 0.29 %ID/g | 4.53 %ID/g | 5.39 %ID/g | 3.7 %ID/g | 8.36 %ID/g | 1.39 %ID/g | 1.67 %ID/g | 1.28 %ID/g | 2.35 %ID/g | 0.97 %ID/g | 2.14 %ID/g | 6.55 %ID/g | 0.35 | 4.32 | 1.27 | 4.85 | 3.91 | CC(C)NCCCC[C@H](NC(=O)[C@H]1CCC(=O)N[C@@H](CCCCNC(=O)[C@H](CCCCNC(=O)CCCc2ccc(I)cc2)NC(=O)[C@H](CS(=O)(=O)O)NC(=O)CN2CCN(CC(=O)O)CCN(CC(=O)O)CCN(CC(=O)O)CC2)C(=O)N[C@@H](Cc2ccc(O)cc2)C(=O)N[C@@H](CCCCNC(C)C)C(=O)N[C@H](CCCNC(=N)N)C(=O)N[C@@H](Cc2ccc3ccccc3c2)C(=O)N[C@H](C)C(=O)N1)C(N)=O [[^68Ga]Ga-BL34L11, metal not drawn] (K(X1)Y[Lys(iPr)][dR][2Nal][dA][dE][Lys(iPr)]-NH2; lactam N-7) | tissue uptake at 3 h (Biodistribution: Adrenals): 2.34 %ID/g; tissue uptake at 3 h (Biodistribution: Blood): 13.4 %ID/g; tissue uptake at 3 h (Biodistribution: Bone): 1.23 %ID/g; tissue uptake at 3 h (Biodistribution: Brain): 0.22 %ID/g; tissue uptake at 3 h (Biodistribution: Heart): 3.17 %ID/g; tissue uptake at 3 h (Biodistribution: Kidneys): 3.9 %ID/g; tissue uptake at 3 h (Biodistribution: Liver): 3.02 %ID/g; tissue uptake at 3 h (Biodistribution: Lungs): 6.64 %ID/g; tissue uptake at 3 h (Biodistribution: Muscle): 1.08 %ID/g; tissue uptake at 3 h (Biodistribution: Pancreas): 1.42 %ID/g; tissue uptake at 3 h [1]: 1.11 %ID/g; tissue uptake at 3 h (Biodistribution: Spleen): 2 %ID/g; tissue uptake at 3 h (Biodistribution: Stomach): 0.48 %ID/g; tissue uptake at 3 h (Biodistribution: Testes): 2.59 %ID/g; tissue uptake at 3 h (Biodistribution: Z138 Tumor): 11.3 %ID/g; tissue to tissue ratio at 3 h (Ratio Tumor-to-Blood): 0.85; tissue to tissue ratio at 3 h (Ratio Tumor-to-Bone): 10.3; tissue to tissue ratio at 3 h (Ratio Tumor-to-Kidney): 2.91; tissue to tissue ratio at 3 h (Ratio Tumor-to-Muscle): 10.5; tissue to tissue ratio at 3 h (Ratio Tumor-to-Pancreas): 7.95 |
| 1.63 %ID/g | 7.27 %ID/g | 2.65 %ID/g | 0.11 %ID/g | 1.66 %ID/g | 3.56 %ID/g | 2.61 %ID/g | 5.9 %ID/g | 0.61 %ID/g | 0.76 %ID/g | 0.86 %ID/g | 2.48 %ID/g | 0.26 %ID/g | 1.16 %ID/g | 10.1 %ID/g | 1.38 | 6.11 | 2.83 | 16.8 | 13.6 | CC(C)NCCCC[C@H](NC(=O)[C@H]1CCC(=O)N[C@@H](CCCCNC(=O)[C@H](CCCCNC(=O)CCCc2ccc(Cl)cc2)NC(=O)[C@H](CS(=O)(=O)O)NC(=O)CN2CCN(CC(=O)O)CCN(CC(=O)O)CCN(CC(=O)O)CC2)C(=O)N[C@@H](Cc2ccc(O)cc2)C(=O)N[C@@H](CCCCNC(C)C)C(=O)N[C@H](CCCNC(=N)N)C(=O)N[C@@H](Cc2ccc3ccccc3c2)C(=O)N[C@H](C)C(=O)N1)C(N)=O [[^68Ga]Ga-BL34L16, metal not drawn] (K(X5)Y[Lys(iPr)][dR][2Nal][dA][dE][Lys(iPr)]-NH2; lactam N-7) | tissue uptake at 3 h (Biodistribution: Adrenals): 0.7 %ID/g; tissue uptake at 3 h (Biodistribution: Blood): 2.7 %ID/g; tissue uptake at 3 h (Biodistribution: Bone): 2.01 %ID/g; tissue uptake at 3 h (Biodistribution: Brain): 0.06 %ID/g; tissue uptake at 3 h (Biodistribution: Heart): 0.67 %ID/g; tissue uptake at 3 h (Biodistribution: Kidneys): 2.2 %ID/g; tissue uptake at 3 h (Biodistribution: Liver): 2.33 %ID/g; tissue uptake at 3 h (Biodistribution: Lungs): 2.85 %ID/g; tissue uptake at 3 h (Biodistribution: Muscle): 0.32 %ID/g; tissue uptake at 3 h (Biodistribution: Pancreas): 0.31 %ID/g; tissue uptake at 3 h [1]: 0.41 %ID/g; tissue uptake at 3 h (Biodistribution: Spleen): 2.05 %ID/g; tissue uptake at 3 h (Biodistribution: Stomach): 0.16 %ID/g; tissue uptake at 3 h (Biodistribution: Testes): 0.68 %ID/g; tissue uptake at 3 h (Biodistribution: Z138 Tumor): 15.2 %ID/g; tissue to tissue ratio at 3 h (Ratio Tumor-to-Blood): 5.74; tissue to tissue ratio at 3 h (Ratio Tumor-to-Bone): 19.3; tissue to tissue ratio at 3 h (Ratio Tumor-to-Kidney): 6.92; tissue to tissue ratio at 3 h (Ratio Tumor-to-Muscle): 50.4; tissue to tissue ratio at 3 h (Ratio Tumor-to-Pancreas): 50.7 |
| 0.17 %ID/g | 0.32 %ID/g | 0.13 %ID/g | 0.02 %ID/g | 0.12 %ID/g | 2.7 %ID/g | 0.71 %ID/g | 0.44 %ID/g | 0.09 %ID/g | 0.08 %ID/g | 0.19 %ID/g | 0.26 %ID/g | 0.05 %ID/g | 0.18 %ID/g | 12 %ID/g | 37.7 | 92.2 | 4.6 | 157 | 146 | CC(C)NCCCC[C@H](NC(=O)[C@H]1CCC(=O)N[C@@H](CCCCNC(=O)[C@H](CS(=O)(=O)O)NC(=O)CN2CCN(CC(=O)O)CCN(CC(=O)O)CCN(CC(=O)O)CC2)C(=O)N[C@@H](Cc2ccc(O)cc2)C(=O)N(C)[C@@H](CCCCNC(C)C)C(=O)N[C@H](CCCNC(=N)N)C(=O)N[C@@H](Cc2ccc3ccccc3c2)C(=O)N[C@H](C)C(=O)N1)C(N)=O [[^68Ga]Ga-BL34N1, metal not drawn] (K([Cya-DOTA])Y[NMeLys(iPr)][dR][2Nal][dA][dE][Lys(iPr)]-NH2; lactam N-7) | – |

— patent US20250242064A1, “CXCR4-TARGETING COMPOUNDS, AND METHODS OF MAKING AND USING THE SAME” (PROVINCIAL HEALTH SERVICES AUTHORITY, priority 2022, published 2025)
